# Data from patent US11767278B2, “Plant extract compositions for forming protective coatings” (Apeel Technology, Inc., priority 2015, dated 2023).
# Test system: avocados
# Assay: Mass loss rates of avocados coated with compounds extracted by thermal depolymerization of cutin
# Parameters: species or system avocado
# Conditions: unpeeled avocados dipped in 10 mg/mL solution in ethanol, humidity about 40%-55%
# Experimental: Protective coatings were formed over avocados by extracting compounds by method described herein (thermal depolymerization of cutin) and depositing the compounds over the outer surface of the (unpeeled) avocados. The mass loss rates of the avocados were then measured and compared to those of uncoated avocados. All coatings were formed by dipping the avocados in a solution comprising the associated compounds dissolved in substantially pure ethanol at a concentration of 10 mg/mL, placing the avocados on drying racks, and allowing the avocados to dry under ambient room conditions at a temperature in the range of about 23° C.-27° C. and humidity in the range of about 40%-55%. The avocados were held at these same temperature and humidity conditions for the entire duration of the time they were tested.
# Mass loss rates are shown in FIG. 16 for untreated (e.g., uncoated) avocados in bar 1602, for avocados coated with ethyl 10,16-dihydroxyhexadecanoate (referred to as “EtDHPA”) in bar 1604, and for avocados coated with a mixture of EtDHPA and 1,3-dihydroxypropan-2-yl hexadecanoate (referred to as “PA-2G”) in bar 1606, where for bar 1606 the EtDHPA and PA-2G were mixed at a mass ratio of 30:70. […]
structure (smiles),measurement,setting,value
"CCOC(=O)CCCCCCCCC(O)CCCCCCO (centres unmarked) [EtDHPA, ethyl 10,16-dihydroxyhexadecanoate]",average rate of mass decrease of coated avocados (mass loss rate),"dried, held at about 23-27 °C, group of 30 avocados, FIG. 16",about 1.06 % per day
same,reduction of average mass loss rate as compared to the uncoated avocados,"about 23-27 °C, uncoated avocados about 1.21% per day",more than 12%
